From PubChem BioAssay AID1259407 (Chemical Carcinogenesis Research Information System (CCRIS), 2018) come the findings set out here.

Structures are written as SMILES. Calls of active or inactive are those of the source. No rule for the calls is given here.

The test system of this series is CCRIS mutagenicity, Ames/micronucleus/aberration tests. As to the kind of experiment: CCRIS mutagenicity studies.
The mark [1] stands for this setting: Test System: AMES SALMONELLA TYPHIMURIUM, Strain/Indicator: TA98, Metabolic Activation: NONE, Method: PREINCUBATION
[2] abbreviates: Test System: AMES SALMONELLA TYPHIMURIUM, Strain/Indicator: TA100, Metabolic Activation: NONE, Method: PREINCUBATION
[3] abbreviates: Test System: AMES SALMONELLA TYPHIMURIUM, Strain/Indicator: TA1537, Metabolic Activation: NONE, Method: PREINCUBATION
The mark [4] stands for this setting: Test System: AMES SALMONELLA TYPHIMURIUM, Strain/Indicator: TA98, Metabolic Activation: RAT, LIVER, S-9, AROCLOR 1254 (10%), Method: PREINCUBATION
[5] abbreviates: Test System: AMES SALMONELLA TYPHIMURIUM, Strain/Indicator: TA100, Metabolic Activation: HAMSTER, LIVER, S-9, AROCLOR 1254 (10%), Method: PREINCUBATION
[6] abbreviates: Test System: AMES SALMONELLA TYPHIMURIUM, Strain/Indicator: TA100, Metabolic Activation: RAT, LIVER, S-9, AROCLOR 1254 (10%), Method: PREINCUBATION
[7] abbreviates: Test System: AMES SALMONELLA TYPHIMURIUM, Strain/Indicator: TA1535, Metabolic Activation: HAMSTER, LIVER, S-9, AROCLOR 1254 (10%), Method: PREINCUBATION
Where [8] appears, read: Test System: AMES SALMONELLA TYPHIMURIUM, Strain/Indicator: TA1535, Metabolic Activation: NONE, Method: PREINCUBATION
Where [9] appears, read: Test System: AMES SALMONELLA TYPHIMURIUM, Strain/Indicator: TA1535, Metabolic Activation: RAT, LIVER, S-9, AROCLOR 1254 (10%), Method: PREINCUBATION

In the case of `CC(=O)Nc1nc(-c2ccc([N+](=O)[O-])o2)cs1`, the mutagenic call runs as follows: (Test System: AMES SALMONELLA TYPHIMURIUM, Strain/Indicator: TA100, Metabolic Activation: RAT, LIVER, S-9, KC500 OR PHENOBARBITAL, Method: LIQUID SUSPENSION) “active; positive”; (Test System: E. COLI WP2, Strain/Indicator: WP2, Metabolic Activation: NONE, Method: SPOT) “active; positive”.
For the molecule `O=c1c2ccccc2c(=O)c2c1cc(Cl)c1[nH]c3c([nH]c12)c(Cl)cc1c(=O)c2ccccc2c(=O)c13`, the mutagenic call runs as follows: (Test System: Ames Salmonella typhimurium, Strain/Indicator: TA98, Metabolic Activation: None, Method: Preincubation) “active; positive”; (Test System: Ames Salmonella typhimurium, Strain/Indicator: TA100, Metabolic Activation: None, Method: Preincubation) “inactive; negative”; (Test System: Ames Salmonella typhimurium, Strain/Indicator: TA102, Metabolic Activation: None, Method: Preincubation) “inactive; negative”; (Test System: Ames Salmonella typhimurium, Strain/Indicator: TA1535, Metabolic Activation: None, Method: Preincubation) “inactive; negative”.
Regarding `BrCCCCCBr`, the mutagenic call was “inactive; negative” under setting [1]; “inactive; negative” (Test System: AMES SALMONELLA TYPHIMURIUM, Strain/Indicator: TA98, Metabolic Activation: RAT LIVER S-9, PHENOBARBITAL AND BETA-NAPHTHOFLAVONE, Method: PREINCUBATION); “inactive; negative” under setting [2]; “inactive; negative” (Test System: AMES SALMONELLA TYPHIMURIUM, Strain/Indicator: TA100, Metabolic Activation: RAT LIVER S-9, PHENOBARBITAL AND BETA-NAPHTHOFLAVONE, Method: PREINCUBATION); “inactive; negative” under setting [3]; “inactive; negative” (Test System: AMES SALMONELLA TYPHIMURIUM, Strain/Indicator: TA1537, Metabolic Activation: RAT LIVER S-9, PHENOBARBITAL AND BETA-NAPHTHOFLAVONE, Method: PREINCUBATION).
`BrCC(Br)C1CCC(Br)C(Br)C1` (stereo not given): the mutagenic call by setting is: (End Point: IN VITRO CHROMOSOMAL ABERRATIONS, Test System: CHINESE HAMSTER LUNG CELLS (CHL), Metabolic Activation: NONE) “inactive; negative”; (End Point: IN VITRO CHROMOSOMAL ABERRATIONS, Test System: CHINESE HAMSTER LUNG CELLS (CHL), Metabolic Activation: RAT, LIVER, S-9, KC-400) “active; positive (structural changes)”; (End Point: IN VITRO CHROMOSOMAL ABERRATIONS, Test System: CHINESE HAMSTER OVARY CELLS (CHO), Metabolic Activation: NONE) “inactive; negative”; (End Point: IN VITRO CHROMOSOMAL ABERRATIONS, Test System: CHINESE HAMSTER OVARY CELLS (CHO), Metabolic Activation: RAT, LIVER, S-9, AROCLOR 1254) “inactive; negative”; (End Point: IN VITRO CHROMOSOMAL ABERRATIONS, Test System: CHO CELLS, Metabolic Activation: NONE) “inactive; negative”; (End Point: IN VITRO CHROMOSOMAL ABERRATIONS, Test System: CHO CELLS, Metabolic Activation: RAT, LIVER, S-9, AROCLOR 1254) “inactive; negative”. The mutagenic call is “inactive; negative” (Test System: AMES SALMONELLA TYPHIMURIUM, Strain/Indicator: TA98, Metabolic Activation: HAMSTER, LIVER, S-9, AROCLOR 1254 (10%), Method: PREINCUBATION); “inactive; negative” under setting [1]; “inactive; negative” under setting [4]; “inactive; negative” under setting [5]; “inactive; negative” under setting [2]; “inactive; negative” under setting [6]. The mutagenic call reads like this: under setting [7], “inactive; negative”; under setting [8], “inactive; negative”; under setting [9], “inactive; negative”; (Test System: AMES SALMONELLA TYPHIMURIUM, Strain/Indicator: TA1537, Metabolic Activation: HAMSTER, LIVER, S-9, AROCLOR 1254 (10%), Method: PREINCUBATION) “inactive; negative”; under setting [3], “inactive; negative”; (Test System: AMES SALMONELLA TYPHIMURIUM, Strain/Indicator: TA1537, Metabolic Activation: RAT, LIVER, S-9, AROCLOR 1254 (10%), Method: PREINCUBATION) “inactive; negative”. Besides, the mutagenic call (Test System: MOUSE LYMPHOMA, Strain/Indicator: L5178Y (TK+/TK-), Metabolic Activation: NONE, Method: SUSPENSION/PLATE) was “active; positive”.
On to `O.O.O.O.O.O.O=[N+]([O-])[O-].O=[N+]([O-])[O-].O=[N+]([O-])[O-].[La+3]`, for which the mutagenic call by setting is: (Test System: AMES SALMONELLA TYPHIMURIUM, Strain/Indicator: TA97, Metabolic Activation: HAMSTER, LIVER, S-9, AROCLOR 1254 (10 OR 30%), Method: PREINCUBATION) “inactive; negative”; (Test System: AMES SALMONELLA TYPHIMURIUM, Strain/Indicator: TA97, Metabolic Activation: NONE, Method: PREINCUBATION) “inactive; negative”; (Test System: AMES SALMONELLA TYPHIMURIUM, Strain/Indicator: TA97, Metabolic Activation: RAT, LIVER, S-9, AROCLOR 1254 (10%), Method: PREINCUBATION) “inactive; negative”; (Test System: AMES SALMONELLA TYPHIMURIUM, Strain/Indicator: TA97, Metabolic Activation: RAT, LIVER, S-9, AROCLOR 1254 (30%), Method: PREINCUBATION) “inactive; negative”; (Test System: AMES SALMONELLA TYPHIMURIUM, Strain/Indicator: TA98, Metabolic Activation: HAMSTER, LIVER, S-9, AROCLOR 1254 (10 OR 30%), Method: PREINCUBATION) “inactive; negative”; under setting [1], “inactive; negative”. The mutagenic call by setting is: under setting [4], “inactive; negative”; (Test System: AMES SALMONELLA TYPHIMURIUM, Strain/Indicator: TA98, Metabolic Activation: RAT, LIVER, S-9, AROCLOR 1254 (30%), Method: PREINCUBATION) “inactive; negative”; under setting [5], “inactive; negative”; (Test System: AMES SALMONELLA TYPHIMURIUM, Strain/Indicator: TA100, Metabolic Activation: HAMSTER, LIVER, S-9, AROCLOR 1254 (30%), Method: PREINCUBATION) “inactive; negative”; under setting [2], “inactive; negative”; under setting [6], “inactive; negative”. Further, the mutagenic call is “inactive; negative” (Test System: AMES SALMONELLA TYPHIMURIUM, Strain/Indicator: TA100, Metabolic Activation: RAT, LIVER, S-9, AROCLOR 1254 (30%), Method: PREINCUBATION); “inactive; negative” under setting [7]; “inactive; negative” (Test System: AMES SALMONELLA TYPHIMURIUM, Strain/Indicator: TA1535, Metabolic Activation: HAMSTER, LIVER, S-9, AROCLOR 1254 (30%), Method: PREINCUBATION); “inactive; negative” under setting [8]; “inactive; negative” under setting [9]; “inactive; negative” (Test System: AMES SALMONELLA TYPHIMURIUM, Strain/Indicator: TA1535, Metabolic Activation: RAT, LIVER, S-9, AROCLOR 1254 (30%), Method: PREINCUBATION). Where the note is “Test System: UDS HUMAN LYMPHOCYTES, Strain/Indicator: THYMIDINE INCORPORATION, Metabolic Activation: NONE, Method: LIQUID SCINTILLATION COUNTING”, the mutagenic call is “active; positive”.
